# Like-named read-outs stand apart in the source and are kept apart here.
# Experiments:
# ROJO (low passage HIV-1) = test: Study 2 hyaluronidase chronic overlay testing: RT activity after secondary ROJO infection; type: cell-based
# Source text: Percent virus control (% VC) in the following tables is the mean RT activity (cpm) as a percentage of a virus control. Percent cell control (% CC) is the mean XTT absorbance as a percentage of a cell control.
# Method A. Peripheral blood monocytes were isolated from normal HIV-1 negative donors by plastic adherence following ficall hypaque purification of the buffy coat PBMCs. For isolation of adherent cells, 3×10^6/ml non-PHA stimulated peripheral blood cells were resuspended in Hanks buffered saline (with calcium and magnesium) supplemented with 10% human AB serum, and 200 μl per well placed in a 96 well lat bottomed microtiter plate. The cells were incubated overnight at 37° C., 5% CO2. Non-adherent cells were removed by washing six time with a Ca^++, Mg^++ containing medium. The adherent cells after the final wash were supplemented with RPMI 1640 supplemented with 15% fetal bovine serum (heat inactivated), 2 mM L-glutamine, 100 U/mL penicillin, 100 μg/mL streptomycin and 10 μg/mL gentamycin, and cultured for 7 days. The cultures were washed one final time before addition of compounds to remove any non-adherent cells. The cultures are carefully monitored for confluency prior to assay.
# Reverse transcriptase (RT) activity was measured in cell-free supernatants. Tritiated thymidine triphosphate (NEN) (TTP) was resuspended in distilled H2O at […]. Poly rA and oligo dT were prepared as a stock solution which was kept at −20° C. The RT reaction buffer was prepared fresh on a daily basis and consists of 125 μL 1.0 M EGTA, 125 μL d H2O, 110 μL 10% SDS, 50 μL 1.0 M Tris (pH 7.4), 50 μL 1.0 M DTT, and 40μ1.0 M MgCl2. These three solutions were mixed together in a ratio of 2 parts TTP, 1 part poly rA:oligo dT, and 1 part reaction buffer. Ten microliters of this reaction mixture was placed in a round bottom microtiter plate and 15 μL of virus containing supernatant was added and mixed. The plate was incubated at 37° C. in a water bath with a solid support to prevent submersion of the plate and incubated for 60 minutes. Following reaction, the reaction volume was spotted onto pieces of DE81 paper, washed 5 times for 5 minutes each in a 5% sodium phosphate buffer, 2 times for 1 minute each in distilled water, 2 times for 1 minute each in 70% ethanol, and then dried. Opti-Fluor O was added to each sample and incorporated radioactivity was quantitated utilizing a Wallace 1450 Microbetaplus liquid scintillation counter.
# Assay method. Seven day old Rojo chronically infected (and uninfected control) PBMCs are pre-treated with two fold dilutions of HLDA-1 for 48 hours. Treated cells are 2× washed with PBS and overlayed onto seven day old macrophages for 72 hours at which time the PBMCs were washed off and replaced with fresh uninfected pha blast PBMCs in the presence of IL-1 (5.0 ng/mL) and IL-2 (20U/mL). Overlayed cells are incubated for 48 hours 50% of cells transferred to a fresh 96 well plate, and then both the original and transfer plate infected with ROJO at a standard MOI. Samples for reverse transcriptase and toxicity testing were processed on day 7 post secondary infection.
# HIV-1 = details: Assay #6
# Description: Reverse transcriptase (RT) activity was measured in cell-free supernatants. Tritiated thymidine triphosphate (NEN) (TTP) was resuspended in distilled H2O at 5 Cl/mL. Poly rA and oligo dT were prepared as a stock solution which was kept at −20° C. The RT reaction buffer was prepared fresh on a daily basis and consists of 125 μL 1.0 M EGTA, 125 μL d H2O, 110 μL 10% SDS, 50 μL 1.0 M Tris (pH 7.4), 50 μL 1.0 M DTT, and 40μ1.0 M MgCl2. These three solutions were mixed together in a ratio of 2 parts TTP, 1 part poly rA:oligo dT, and 1 part reaction buffer. Ten microliters of this reaction mixture was placed in a round bottom microtiter plate and 15 μL of virus containing supernatant was added and mixed. The plate was incubated at 37° C. in a water bath with a solid support to prevent submersion of the plate and incubated for 60 minutes. Following reaction, the reaction volume was spotted onto pieces of DE81 paper, washed 5 times for 5 minutes each in a 5% sodium phosphate buffer, 2 times for 1 minute each in distilled water, 2 times for 1 minute each in 70% ethanol, and then dried. Opti-Fluor O was added to each sample and incorporated radioactivity was quantitated utilizing a Wallace 1450 Microbetaplus liquid scintillation counter.
# Control groups were not treated with the enzyme.
substance,measurement,setting,value
Hyaluronidase,RT activity % VC,"ROJO (low passage HIV-1); Table 4, 2.5 units/mL, Rojo chronic PBMCs, Macrophage + PBMCs",207.4%
same,RT activity % VC,"ROJO (low passage HIV-1); Table 4, 2.5 units/mL, Rojo chronic PBMCs, Transfer PBMCs",183.0%
same,RT activity % VC,"ROJO (low passage HIV-1); Table 4, 2.5 units/mL, control uninfected PBMCs, Macrophage + PBMCs",102.3%
same,RT activity % VC,"ROJO (low passage HIV-1); Table 4, 2.5 units/mL, control uninfected PBMCs, Transfer PBMCs",47.3%
same,RT activity % VC,"ROJO (low passage HIV-1); Table 4, 3.75 units/mL, Rojo chronic PBMCs, Macrophage + PBMCs",124.1%
same,RT activity % VC,"ROJO (low passage HIV-1); Table 4, 3.75 units/mL, Rojo chronic PBMCs, Transfer PBMCs",126.5%
same,RT activity % VC,"ROJO (low passage HIV-1); Table 4, 3.75 units/mL, control uninfected PBMCs, Macrophage + PBMCs",111.5%
same,RT activity % VC,"ROJO (low passage HIV-1); Table 4, 3.75 units/mL, control uninfected PBMCs, Transfer PBMCs",34.4%
same,RT activity % VC,"ROJO (low passage HIV-1); Table 4, 5 units/mL, Rojo chronic PBMCs, Macrophage + PBMCs",22.2%
same,RT activity % VC,"ROJO (low passage HIV-1); Table 4, 5 units/mL, Rojo chronic PBMCs, Transfer PBMCs",24.2%
same,RT activity % VC,"ROJO (low passage HIV-1); Table 4, 5 units/mL, control uninfected PBMCs, Macrophage + PBMCs",71.1%
same,RT activity % VC,"ROJO (low passage HIV-1); Table 4, 5 units/mL, control uninfected PBMCs, Transfer PBMCs",18.0%
same,RT activity % VC,"ROJO (low passage HIV-1); Table 4, 7.5 units/mL, Rojo chronic PBMCs, Macrophage + PBMCs",12.7%
same,RT activity % VC,"ROJO (low passage HIV-1); Table 4, 7.5 units/mL, Rojo chronic PBMCs, Transfer PBMCs",21.9%
same,RT activity % VC,"ROJO (low passage HIV-1); Table 4, 7.5 units/mL, control uninfected PBMCs, Macrophage + PBMCs",56.4%
same,RT activity % VC,"ROJO (low passage HIV-1); Table 4, 7.5 units/mL, control uninfected PBMCs, Transfer PBMCs",26.8%
same,RT activity % VC,"ROJO (low passage HIV-1); Table 4, 10 units/mL, Rojo chronic PBMCs, Macrophage + PBMCs",14.8%
same,RT activity % VC,"ROJO (low passage HIV-1); Table 4, 10 units/mL, Rojo chronic PBMCs, Transfer PBMCs",21.5%
same,RT activity % VC,"ROJO (low passage HIV-1); Table 4, 10 units/mL, control uninfected PBMCs, Macrophage + PBMCs",56.2%
same,RT activity % VC,"ROJO (low passage HIV-1); Table 4, 10 units/mL, control uninfected PBMCs, Transfer PBMCs",21.2%
same,RT activity % VC,"ROJO (low passage HIV-1); Table 4, 15 units/mL, Rojo chronic PBMCs, Macrophage + PBMCs",13.3%
same,RT activity % VC,"ROJO (low passage HIV-1); Table 4, 15 units/mL, Rojo chronic PBMCs, Transfer PBMCs",21.9%
same,RT activity % VC,"ROJO (low passage HIV-1); Table 4, 15 units/mL, control uninfected PBMCs, Macrophage + PBMCs",40.2%
same,RT activity % VC,"ROJO (low passage HIV-1); Table 4, 15 units/mL, control uninfected PBMCs, Transfer PBMCs",20.6%
same,RT activity % VC,"ROJO (low passage HIV-1); Table 4, 20 units/mL, Rojo chronic PBMCs, Macrophage + PBMCs",14.2%
same,RT activity % VC,"ROJO (low passage HIV-1); Table 4, 20 units/mL, Rojo chronic PBMCs, Transfer PBMCs",13.6%
same,RT activity % VC,"ROJO (low passage HIV-1); Table 4, 20 units/mL, control uninfected PBMCs, Macrophage + PBMCs",41.9%
same,RT activity % VC,"ROJO (low passage HIV-1); Table 4, 20 units/mL, control uninfected PBMCs, Transfer PBMCs",33.0%
same,RT activity % VC,"ROJO (low passage HIV-1); Table 4, 30 units/mL, Rojo chronic PBMCs, Macrophage + PBMCs",19.9%
same,RT activity % VC,"ROJO (low passage HIV-1); Table 4, 30 units/mL, Rojo chronic PBMCs, Transfer PBMCs",18.0%
same,RT activity % VC,"ROJO (low passage HIV-1); Table 4, 30 units/mL, control uninfected PBMCs, Macrophage + PBMCs",43.8%
same,RT activity % VC,"ROJO (low passage HIV-1); Table 4, 30 units/mL, control uninfected PBMCs, Transfer PBMCs",24.0%
same,RT activity % VC,"ROJO (low passage HIV-1); Table 5, 2.5 units/mL, Rojo chronic PBMCs, Macrophage + PBMCs",164.0%
same,RT activity % VC,"ROJO (low passage HIV-1); Table 5, 2.5 units/mL, Rojo chronic PBMCs, Transfer PBMCs",106.0%
same,RT activity % VC,"ROJO (low passage HIV-1); Table 5, 2.5 units/mL, control uninfected PBMCs, Transfer PBMCs",136.0%
same,RT activity % VC,"ROJO (low passage HIV-1); Table 5, 3.75 units/mL, Rojo chronic PBMCs, Macrophage + PBMCs",191.7%
same,RT activity % VC,"ROJO (low passage HIV-1); Table 5, 3.75 units/mL, Rojo chronic PBMCs, Transfer PBMCs",152.4%
same,RT activity % VC,"ROJO (low passage HIV-1); Table 5, 3.75 units/mL, control uninfected PBMCs, Macrophage + PBMCs",108.5%
same,RT activity % VC,"ROJO (low passage HIV-1); Table 5, 3.75 units/mL, control uninfected PBMCs, Transfer PBMCs",195.0%
same,RT activity % VC,"ROJO (low passage HIV-1); Table 5, 5 units/mL, Rojo chronic PBMCs, Macrophage + PBMCs",253.5%
same,RT activity % VC,"ROJO (low passage HIV-1); Table 5, 5 units/mL, control uninfected PBMCs, Macrophage + PBMCs",184.7%
same,RT activity % VC,"ROJO (low passage HIV-1); Table 5, 5 units/mL, control uninfected PBMCs, Transfer PBMCs",380.0%
same,RT activity % VC,"ROJO (low passage HIV-1); Table 5, 7.5 units/mL, Rojo chronic PBMCs, Macrophage + PBMCs",476.0%
same,RT activity % VC,"ROJO (low passage HIV-1); Table 5, 7.5 units/mL, Rojo chronic PBMCs, Transfer PBMCs",792.6%
same,RT activity % VC,"ROJO (low passage HIV-1); Table 5, 10 units/mL, Rojo chronic PBMCs, Transfer PBMCs",730.4%
same,RT activity % VC,"ROJO (low passage HIV-1); Table 5, 10 units/mL, control uninfected PBMCs, Macrophage + PBMCs",965.0%
same,RT activity % VC,"ROJO (low passage HIV-1); Table 5, 20 units/mL, Rojo chronic PBMCs, Macrophage + PBMCs",375.9%
same,RT activity % VC,"ROJO (low passage HIV-1); Table 5, 20 units/mL, Rojo chronic PBMCs, Transfer PBMCs",284.2%
same,RT activity % VC,"ROJO (low passage HIV-1); Table 5, 20 units/mL, control uninfected PBMCs, Macrophage + PBMCs",196.8%
same,RT activity % VC,"ROJO (low passage HIV-1); Table 5, 20 units/mL, control uninfected PBMCs, Transfer PBMCs",383.0%
same,RT activity % VC,"ROJO (low passage HIV-1); Table 5, 30 units/mL, Rojo chronic PBMCs, Macrophage + PBMCs",291.8%
same,RT activity % VC,"ROJO (low passage HIV-1); Table 5, 30 units/mL, Rojo chronic PBMCs, Transfer PBMCs",222.3%
same,RT activity % VC,"ROJO (low passage HIV-1); Table 5, 30 units/mL, control uninfected PBMCs, Macrophage + PBMCs",163.1%
same,RT activity % VC,"ROJO (low passage HIV-1); Table 5, 30 units/mL, control uninfected PBMCs, Transfer PBMCs",142.7%
same,% Control,HIV-1; 5 mg/mL,54.1%
same,Mean RT,HIV-1; 5 mg/mL,12279.7 cpm
same,% Control,HIV-1; 10 mg/mL,49.6%
same,Mean RT,HIV-1; 10 mg/mL,11244.7 cpm
same,% Control,HIV-1; 20 mg/mL,19.5%
same,Mean RT,HIV-1; 20 mg/mL,4430.7 cpm
same,"% Control, Sum","HIV-1; Sum over 20, 10, 5 mg/mL",123.2%
same,"Mean RT, Sum","HIV-1; Sum over 20, 10, 5 mg/mL",27955.1 cpm
